{"source": "PubChem BioAssay AID652063", "about": "(Molecular Libraries Program, Specialized Chemistry Center, …, 2013)", "note": "Activity calls are given as the source filed them. How the calls were made is not given here.", "data": [{"test_system": "mouse cells, CHOP mRNA qRT-PCR", "assay": "Inhibitors of CHOP mRNA levels in mouse cells, qRT-PCR, medium throughput (AID 652063)", "values": [{"smiles": "Cc1cc(C2=NNC(=NC3CC3)SC2)c(C)n1-c1ccccc1", "IC50": "3.58 µM (inactive)"}, {"smiles": "Cc1ccc(NC(=O)O/N=C/c2c(C)nn(C(C)(C)C)c2C)cc1Cl", "IC50": "4.53 µM (inactive)"}, {"smiles": "C=CCn1c(C)cc(C2=NN=C(NCC)SC2)c1C", "IC50": "6.18 µM (inactive)"}, {"smiles": "Cc1nn(C(C)(C)C)c(C)c1/C=N/OC(=O)Nc1ccc(Cl)cc1", "IC50": "18.4 µM (inactive)"}, {"smiles": "CCN=C1NN=C(c2cc(C)n(Cc3ccco3)c2C)CS1", "IC50": "3.73 µM (inactive)"}, {"smiles": "Cc1cc(C2=NNC(=NC3CC3)SC2)c(C)n1-c1ccccc1F", "IC50": "2.89 µM (inactive)"}, {"smiles": "CC(C)(C)c1ccc(-c2noc(CCC(N)=O)n2)cc1", "IC50": "> 20 µM (inactive)"}, {"smiles": "CC(C)(C)c1ccc(C(=O)Nc2ccc(CC(=O)O)cc2)o1", "IC50": "> 20 µM (inactive)"}, {"smiles": "CCOc1ccc(-c2nc(CSCC(=O)NCc3ccco3)c(C)o2)cc1", "IC50": "4.37 µM (inactive)"}, {"smiles": "Cc1cc(C(=O)COC(=O)c2ccccc2O)c(C)n1Cc1cccs1", "IC50": "6.12 µM (inactive)"}, {"smiles": "Cc1ccc(NC(=O)c2cc3ccccc3oc2=O)cc1S(=O)(=O)N(C)C", "IC50": "> 20 µM (inactive)"}]}]}
